Measured values as given in patent US6716828B1, “Compounds, methods and pharmaceutical compositions for treating cellular damage, such as neural or cardiovascular tissue damage” (Guilford Pharmaceuticals, Inc., priority 1999, dated 2004).

These compounds were tested against T1, purified recombinant human PARP (Homo sapiens, UniProt P09874) (assay: PARP enzyme assay (IC50), [3H]NAD incorporation). Settings: approximate IC50 values.
T1 construct: purchased Trevigan (Gaithersburg, Md.)
Type: biochemical
Procedure: A convenient method to determine IC50 of a PARP inhibitor compound is PARP assay using purified recombinant human PARP from Trevigan (Gaithersburg, Md.), as follows: The PARP enzyme assay is set up on ice in a volume of 100 microliters consisting of 100 mM Tris-HCl (pH 8.0). 1 mM MgCl2, 28 mM KCl, 28 mM NaCl, 0.1 mg/ml of DNase I activated herring sperm DNA (Sigma, Mo.), 3.0 micromolar [3H]nicotinamide adenine dinucleotide (470 mci/mmole), 7 micrograms/ml PARP enzyme, and various concentrations of the compounds to be tested. The reaction is initiated by incubating the mixture at 25° C. After 15 minutes of incubation, the reaction is terminated by adding 500 microliters of ice code 20% (w/v) trichloracetic acid. The precipitate formed is transferred onto a glass fiber filter (Packard Unifilter-GF/B) and washed three items with ethanol. After the filter is dried, the radioactivity is determined by scintillation counting.
Using the PARP assay described above, approximate IC50 values were obtained for the following compounds: […]

T1 sequence (P09874 whole entry): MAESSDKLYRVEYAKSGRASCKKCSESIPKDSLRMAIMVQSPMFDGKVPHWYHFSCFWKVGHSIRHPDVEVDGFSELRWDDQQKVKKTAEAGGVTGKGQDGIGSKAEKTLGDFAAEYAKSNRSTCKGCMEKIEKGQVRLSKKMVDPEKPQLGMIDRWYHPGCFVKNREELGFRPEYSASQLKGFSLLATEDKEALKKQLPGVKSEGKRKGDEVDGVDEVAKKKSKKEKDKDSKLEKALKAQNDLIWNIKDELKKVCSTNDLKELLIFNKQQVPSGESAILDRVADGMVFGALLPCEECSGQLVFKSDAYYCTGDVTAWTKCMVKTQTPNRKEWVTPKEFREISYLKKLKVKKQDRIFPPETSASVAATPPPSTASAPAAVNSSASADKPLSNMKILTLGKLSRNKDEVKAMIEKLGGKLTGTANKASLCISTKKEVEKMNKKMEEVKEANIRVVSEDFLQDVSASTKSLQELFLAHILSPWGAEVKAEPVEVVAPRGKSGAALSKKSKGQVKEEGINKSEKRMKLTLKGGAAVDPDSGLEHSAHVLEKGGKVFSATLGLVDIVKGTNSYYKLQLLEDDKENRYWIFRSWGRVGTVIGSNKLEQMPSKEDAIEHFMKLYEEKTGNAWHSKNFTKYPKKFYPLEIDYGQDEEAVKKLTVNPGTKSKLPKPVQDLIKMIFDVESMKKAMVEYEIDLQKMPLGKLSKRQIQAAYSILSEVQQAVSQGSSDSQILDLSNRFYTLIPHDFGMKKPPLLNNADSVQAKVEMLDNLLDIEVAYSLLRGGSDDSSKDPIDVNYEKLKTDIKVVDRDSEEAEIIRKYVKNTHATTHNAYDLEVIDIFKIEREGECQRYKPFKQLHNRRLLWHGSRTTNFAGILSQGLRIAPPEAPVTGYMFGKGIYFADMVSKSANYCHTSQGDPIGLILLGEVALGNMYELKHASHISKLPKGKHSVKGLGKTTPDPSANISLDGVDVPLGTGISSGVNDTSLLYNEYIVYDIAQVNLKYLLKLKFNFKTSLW

Structure (SMILES) | IC50
CC(=O)Nc1ccc2c(c1)-c1n[nH]c(=O)c3cccc-2c13 | 69 nM
O=c1[nH]nc2c3c(cccc13)Oc1ccc(S(=O)(=O)NCCN3CCCCC3)cc1-2 | 192 nM
O=c1[nH]nc2c3c(cccc13)Oc1ccc(S(=O)(=O)NCCN3CCOCC3)cc1-2 | 81 nM
CN1CCN(S(=O)(=O)c2ccc3c(c2)-c2n[nH]c(=O)c4cccc(c24)O3)CC1 | 208 nM
CCOP(=O)(Nc1ccc2c(c1)-c1n[nH]c(=O)c3cccc(c13)O2)OCC | 199 nM
CS(=O)(=O)Nc1ccc2c(c1)-c1n[nH]c(=O)c3cccc(c13)O2 | 198 nM
O=C(O)c1cccc(S(=O)(=O)Nc2ccc3c(c2)-c2n[nH]c(=O)c4cccc-3c24)c1 | 52 nM
CCN(CC)CCNS(=O)(=O)c1ccc2c(c1)-c1n[nH]c(=O)c3cccc-2c13 | 390 nM
O=c1[nH]nc2c3c(cccc13)-c1ccc(S(=O)(=O)NCCN3CCOCC3)cc1-2 | 340 nM
O=C1NN=C2C3C=CC=CC3[S+]([O-])C3=CC=CC1C32 (centres unmarked) | 340 nM
NCNCc1ccc2c(c1)-c1n[nH]c(=O)c3cccc(c13)O2 | 45 nM
CCCCN(C)Cc1ccc2c(c1)-c1n[nH]c(=O)c3cccc(c13)O2 | 120 nM
O=c1[nH]nc2c3c(cccc13)Oc1ccc(CN3CCCCC3)cc1-2 | 72 nM
Cc1cc2c(c(S(=O)(=O)O)c1)Oc1cccc3c(=O)[nH]nc-2c13 | 2030 nM
CN(C)c1cccc(OCc2ccc3c(c2)-c2n[nH]c(=O)c4cccc(c24)O3)c1 | 128 nM
O=C1NCC2c3cc(S(=O)(=O)O)ccc3Oc3cccc1c32 (centres unmarked) | 161 nM
O=c1[nH]nc2c3c(cccc13)Oc1ccc(COc3cccnc3)cc1-2 | 54 nM
O=c1[nH]nc2c3c(cccc13)Oc1ccc(CN3CCN(Cc4ccccc4)CC3)cc1-2 | 44 nM
O=c1[nH]nc2c3c(cccc13)Oc1ccc(CN3CCN(c4ccccc4)CC3)cc1-2 | 62 nM
O=C1NCC2c3cc(S(=O)(=O)NCCN4CCCCC4)ccc3Oc3cccc1c32 (centres unmarked) | 361 nM
O=c1[nH]nc2c3c(cccc13)Oc1c-2ccc2ccccc12 | 40000 nM
O=c1[nH]nc2c3c(cccc13)Oc1ccc(S(=O)(=O)NCCc3ccncc3)cc1-2 | 89 nM
Cc1cc2c(c(-n3nc4ccccc4n3)c1)Oc1cccc3c(=O)[nH]nc-2c13 | 25000 nM
O=c1[nH]nc2c3c(cccc13)Oc1cc3ccccc3cc1-2 | 139 nM
O=c1[nH]nc2c3c(cccc13)Oc1ccc(-c3nc4ccccc4nc3-c3ccccc3)cc1-2 | 100 nM
CN(C)CCN(C)Cc1ccc2c(c1)-c1n[nH]c(=O)c3cccc(c13)O2 | 85 nM
O=C(O)C(O)C(O)C(=O)Nc1ccc2c(c1)-c1n[nH]c(=O)c3cccc-2c13 (centres unmarked) | 65 nM
O=c1[nH]nc2c3c(cccc13)Oc1ccc(CN3CCOCC3)cc1-2 | 75 nM

Compounds with a lower IC50, results first:

IC50 | Structure (SMILES)
40 nM | NNC(=O)c1cc(OCc2ccc3c(c2)-c2n[nH]c(=O)c4cccc(c24)O3)cc(C(=O)NN)c1
37 nM | O=c1[nH]nc2c3c(cccc13)Oc1ccc(S(=O)(=O)NC3CN4CCC3CC4)cc1-2 (centres unmarked)
36 nM | CC(=O)Nc1ccc2c(c1)-c1n[nH]c(=O)c3cccc(c13)O2
35 nM | NNC(=O)c1ccc(OCc2ccc3c(c2)-c2n[nH]c(=O)c4cccc(c24)O3)cc1
29 nM | O=C(O)CCC(=O)Nc1ccc2c(c1)-c1n[nH]c(=O)c3cccc-2c13
28 nM | NCCSCc1ccc2c(c1)-c1n[nH]c(=O)c3cccc(c13)O2
25 nM | O=c1[nH]nc2c3c(cccc13)Oc1ccc(NS(=O)(=O)O)cc1-2
25 nM | N#CCc1ccc2c(c1)-c1n[nH]c(=O)c3cccc(c13)O2
23 nM | O=C(O)C(O)C(O)C(=O)Nc1ccc2c(c1)-c1n[nH]c(=O)c3cccc(c13)O2 (centres unmarked)
21 nM | O=C(O)CCC(=O)Nc1ccc2c(c1)-c1n[nH]c(=O)c3cccc(c13)O2
18 nM | CC(=O)OC(C(=O)O)C(OC(C)=O)C(=O)Nc1ccc2c(c1)-c1n[nH]c(=O)c3cccc(c13)O2 (centres unmarked)
17 nM | CN(C)Cc1ccc2c(c1)-c1n[nH]c(=O)c3cccc(c13)O2
17 nM | O=c1[nH]nc2c3c(cccc13)Oc1ccc(CSc3ccncc3)cc1-2
